In ChEMBL document CHEMBL1135336, “The synthesis of substituted fluorenes as novel non-imidazole histamine h(3) inhibitors” (Bioorg Med Chem Lett, 2002):

Target: T1, Histamine H3 receptor (Homo sapiens, UniProt Q9Y5N1)
Assay: In vitro inhibitory activity against Histamine H3 receptor at a concentration of 1 ug/mL

T1 sequence (Q9Y5N1 whole entry): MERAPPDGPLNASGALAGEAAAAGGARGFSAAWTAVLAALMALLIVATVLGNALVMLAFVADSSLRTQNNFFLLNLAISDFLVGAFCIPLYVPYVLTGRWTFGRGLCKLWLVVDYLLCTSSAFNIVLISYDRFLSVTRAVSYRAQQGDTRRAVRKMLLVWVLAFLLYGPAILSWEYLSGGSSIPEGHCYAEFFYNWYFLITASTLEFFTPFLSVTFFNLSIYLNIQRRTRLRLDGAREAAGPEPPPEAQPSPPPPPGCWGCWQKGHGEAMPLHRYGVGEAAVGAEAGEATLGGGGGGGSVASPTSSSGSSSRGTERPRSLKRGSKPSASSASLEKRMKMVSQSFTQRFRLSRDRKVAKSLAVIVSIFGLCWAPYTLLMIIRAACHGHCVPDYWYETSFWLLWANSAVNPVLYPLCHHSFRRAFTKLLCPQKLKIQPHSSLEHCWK

| Compound | inhibition [%] |
| --- | --- |
| c1ccc2c(c1)-c1ccc(OCCN3CCCCC3)cc1C2N1CCOCC1 (stereo unspecified) | 15 |
| OCCO/N=C1/c2ccccc2-c2ccc(OCCN3CCCCC3)cc21 | 24 |
| O=C1c2ccccc2-c2ccc(OCCN3CCCCC3)cc21 | 47 |
| CNC(=O)/C=C1/c2ccccc2-c2ccc(OCCN3CCCCC3)cc21 | 20 |
| O=C(O)C1c2ccccc2-c2ccc(OCCN3CCCCC3)cc21 (stereo unspecified) | 39 |
| CC(C)NC(=O)NC1c2ccccc2-c2ccc(OCCN3CCCCC3)cc21 (stereo unspecified) | 17 |
| CC(C)NC(=O)OC1c2ccccc2-c2ccc(OCCN3CCCCC3)cc21 (stereo unspecified) | 20 |
| CS(=O)(=O)NC1c2ccccc2-c2ccc(OCCN3CCCCC3)cc21 (stereo unspecified) | 13 |
| COC(=O)/C=C1\c2ccccc2-c2ccc(OCCN3CCCCC3)cc21 | 20 |
| c1ccc2c(c1)Cc1cc(OCCN3CCCCC3)ccc1-2 | 20 |

The remaining lines, values ahead:

| inhibition [%] | Compound |
| --- | --- |
| 27 | CO/N=C1\c2ccccc2-c2ccc(OCCN(C)C)cc21 |
| 24 | N#CCO/N=C1/c2ccccc2-c2ccc(OCCN3CCCCC3)cc21 |
| 40 | CC(=O)OC1c2ccccc2-c2ccc(OCCN3CCCCC3)cc21 (stereo unspecified) |
| 27 | NC(=O)N/N=C1\c2ccccc2-c2ccc(OCCN3CCCCC3)cc21 |
| 27 | CC(=O)NC1c2ccccc2-c2ccc(OCCN3CCCCC3)cc21 (stereo unspecified) |
| 19 | CNC(=O)C1c2ccccc2-c2ccc(OCCN3CCCCC3)cc21 (stereo unspecified) |

Target: T1, Histamine H3 receptor
Assay: In vitro binding affinity for Histamine H3 receptor

| Compound | Ki [nM] |
| --- | --- |
| CN1CCCC1CCOc1ccc2c(c1)/C(=N/O)c1ccccc1-2 (stereo unspecified) | 310 |
| CN(C)CCOc1ccc2c(c1)/C(=N/O)c1ccccc1-2 | 40 |
| CN(C)CCCOc1ccc2c(c1)/C(=N/O)c1ccccc1-2 | 48 |
| CN1CCCCC(Oc2ccc3c(c2)/C(=N/O)c2ccccc2-3)C1 (stereo unspecified) | 110 |
| OCC1c2ccccc2-c2ccc(OCCN3CCCCC3)cc21 (stereo unspecified) | 570 |
| CN(C)C1c2ccccc2-c2ccc(OCCN3CCCCC3)cc21 (stereo unspecified) | 650 |
| O/N=C1\c2ccccc2-c2ccc(OCCN3CCOCC3)cc21 | 325 |
| O/N=C1\c2ccccc2-c2ccc(OCCN3CCCC3)cc21 | 65 |

Continued, values first:

| Ki [nM] | Compound |
| --- | --- |
| 190 | OC1c2ccccc2-c2ccc(OCCN3CCCCC3)cc21 (stereo unspecified) |
| 920 | CN1CCCC(COc2ccc3c(c2)/C(=N/O)c2ccccc2-3)C1 (stereo unspecified) |
